Measured values published in patent US20240092779A1, “USP1 INHIBITORS AND USES THEREOF” (Zentaur Therapeutics USA Inc., priority 2022, published 2024).
Values after ≈ are worked out from the molar mass of the structure shown.

Experiments:
[1] = Solubility in FaSSIF (Fasted State Simulated Intestinal Fluid); format: physicochemical; details: FaSSIF pH 6.5, 25° C.; for solubility at 2 h: kinetic from dmso stock
Experimental: Solubility in FaSSIF (Fasted State Simulated Intestinal Fluid)
Certain Compounds of the Disclosure were assessed for the apparent solubility in FaSSIF.
0.420 g of NaOH, 3.438 g of NaH2PO4 and 6.186 g of NaCl were dissolved into about 900 mL ultrapure water. The solution was adjusted to the pH of 6.5 with 1N NaOH or 1N HCl. The solution was then diluted with ultrapure water to 1000 mL at room temperature. The resulting solution is used as buffer solution.
2.240 g of FaSSIF Powder was added to about 500 mL of above-mentioned buffer solution. The solution was stirred until powder was completely dissolved. Then the solution was diluted with buffer A to 1000 mL at room temperature. This solution is FaSSIF to be used in the following experiment.
15 μL of stock solution (10 mM) of each sample was placed into their proper 96-well rack. 485 μL of FaSSIF was added into each vial of the cap-less solubility sample plate. One stir stick was added to each vial and the vial was sealed using a molded PTFE/Silicone plug. The solubility sample plate was transferred to the Eppendorf Thermomixer Comfort plate shaker and shaked at 25° C. at 1100 RPM for 2 hours. After completion of the 2 hours, the stir sticks using a big magnet were removed. The samples from the solubility sample plate were transferred into the filter plate. Using the vacuum manifold, all the samples are filtered. Aliquot of 5 μL was taken from filtrate followed by addition of 5 μL DMSO and 490 μL of a mixture of H2O and acetonitrile containing internal standard (1:1).
3 μM Standards solution (STD) was prepared from the 10 mM DMSO STD plate.as following: transferring 6 μL into the remaining empty plate, adding 194 μL of DMSO to that plate to have a STD concentration of 300 μM. From the 300 μM DMSO STD plate, 5 μL solution was transferred into the remaining empty plate. Addition of 5 μL PBS and 490 μL of a mixture of H2O and acetonitrile containing internal standard (1:1) to that plate furnished a final STD concentration of 3 μM STD solution.
The samples are analyzed and quantified against the standard of known concentration using LC/MS/MS, calculating the solubility of the test compound as following (DF means the dilution factor):
[Sample solubility in FsSSIF (04)]=Area Ratio sample×DF sample×[STD]/Area Ratio STD

[2] = Liver microsomal stability (HLM); format: in vitro ADME; details: human liver microsomes 0.5 mg/mL, 1 μM compound, NADPH; for microsomal CLint at 1 μM: human, liver microsomes
Experimental: Liver Microsomal Stability
Certain Compounds of the Disclosure were assessed for ADME metabolic stability in human liver microsomes (HLM).
Samples were prepared by adding 222.5 μL of a master solution (100 mM phosphate buffer and 0.5 mg/mL liver microsomes (HLM)) and 25 μL of a 10 mM NADPH solution to incubation plates, which were then warmed for 10 min. Each compound was separately dissolved in DMSO to prepare 10 mM stock solutions, which were then diluted to 100 μM with acetonitrile. A reaction was started by adding 2.5 μL of the […] solution of each compound to separate incubation plates such that the final concentration of for each compound in each plate was 1 μM. Aliquots of 30 μL were taken from the reaction solution at 0.5, 5, 15, 30 and 60 minutes. The reaction was stopped by the addition of 5 volumes of cold acetonitrile with IS (100 nM alprazolam, 200 nM caffeine and 100 nM tolbutamide). Aliquot of 100 μL of the supernatant was diluted by 100 μL ultra-pure water, and the mixture was used for LC/MS/MS analysis. Peak areas were determined from extracted ion chromatograms. […]. The percentage of remaining parent was calculated from peak area of test compound or PC. The slope value, k, is determined by linear regression of the natural logarithm of percent parent remaining vs. incubation time curve. All calculations are carried out using Microsoft Excel.
The in vitro half-life (in vitro t1/2) is determined from the slope value:
Conversion of the in vitro t1/2 (in min) into the in vitro intrinsic clearance (in vitro CLint, (HLM Clint (μL/min/mg proteins))) is done using the following equation: […]
A: HLM Clint <10 μL/min/mg; B: 10 μL/min/mg≤HLM Clint <50 μL/min/mg; C: HLM Clint ≥50 μL/min/mg.

COc1ncnc(C2CC2)c1-c1ncc2cc(-c3cnn(C)c3)c(=O)n(Cc3ccc(-c4nc(C(F)(F)F)cn4C4CC4)cc3)c2n1 [Compound I-127]
solubility at 2 h [1]: ≥ 100 µM | microsomal CLint at 1 μM [2]: < 10 µL/min/mg

COc1ncnc(C2CC2)c1-c1ncc2cc(C3CCN(C)CC3)c(=O)n(Cc3ccc(-n4nc(C(F)(F)F)cc4C)cc3)c2n1 [Compound I-121]
solubility at 2 h [1]: ≥ 100 µM | microsomal CLint at 1 μM [2]: < 10 µL/min/mg

COc1ncnc(C2CC2)c1-c1ncc2cc(-c3cnn(CCO)c3)c(=O)n(Cc3ccc(-c4nc(C(F)(F)F)cn4C4CC4)cc3)c2n1 [Compound I-131]
solubility at 2 h [1]: ≥ 100 µM | microsomal CLint at 1 μM [2]: < 10 µL/min/mg

COc1cc(Cn2c(=O)cnc3cnc(-c4c(OC)ncnc4C4CC4)nc32)cc(F)c1-c1nc(C(F)(F)F)cn1C(C)C [Compound I-107]
solubility at 2 h [1]: ≥ 100 µM | microsomal CLint at 1 μM [2]: < 10 µL/min/mg

COc1ncnc(C2CC2)c1-c1ncc2cc(-c3cnn(CCN(C)C)c3)c(=O)n(Cc3ccc(-c4nc(C(F)(F)F)cn4C4CC4)cc3)c2n1 [Compound I-132]
solubility at 2 h [1]: ≥ 100 µM | microsomal CLint at 1 μM [2]: 10 to 50 µL/min/mg

COc1cc(Cn2c(=O)ccc3cnc(-c4c(OC)ncnc4C4CC4)nc32)cc(F)c1-c1nc(C(F)(F)F)cn1C(C)C [Compound I-22, 2-(4-cyclopropyl-6-methoxypyrimidin-5-yl)-8-({3-fluoro-4-[1-isopropyl-4-(trifluoromethyl)imidazol-2-yl]-5-methoxyphenyl}methyl)pyrido[2,3-d]pyrimidin-7-one]
solubility at 2 h [1]: ≥ 100 µM | microsomal CLint at 1 μM [2]: 10 to 50 µL/min/mg

COc1cc(Cn2c(=O)ccc3cnc(-c4c(OC)ncnc4C4CC4)nc32)ccc1-c1nc(C(F)(F)F)cn1C1CC1 [Compound I-124]
solubility at 2 h [1]: 10 to 100 µM (≈ 5.9 to 59 µg/mL) | microsomal CLint at 1 μM [2]: < 10 µL/min/mg

O=c1ccc2cnc(-c3c(OC(F)F)ncnc3C3CC3)nc2n1Cc1ccc(-c2nc(C(F)(F)F)cn2C2CC2)cc1 [Compound I-103]
solubility at 2 h [1]: < 10 µM | microsomal CLint at 1 μM [2]: < 10 µL/min/mg

COc1ncnc(C2CC2)c1-c1ncc2cc(-c3c(C)cnn3C)c(=O)n(Cc3ccc(-c4nc(C(F)(F)F)cn4C4CC4)cc3)c2n1 [Compound I-133]
solubility at 2 h [1]: 10 to 100 µM (≈ 6.54 to 65.4 µg/mL) | microsomal CLint at 1 μM [2]: 10 to 50 µL/min/mg

COc1ncnc(C2CC2)c1-c1ncc2cc(C(C)(C)O)c(=O)n(Cc3ccc(-c4nc(C(F)(F)F)cn4C4CC4)cc3)c2n1 [Compound I-109]
solubility at 2 h [1]: ≥ 100 µM | microsomal CLint at 1 μM [2]: < 10 µL/min/mg

COCCN1CCC(c2cc3cnc(-c4c(OC)ncnc4C4CC4)nc3n(Cc3ccc(-c4nc(C(F)(F)F)cn4C4CC4)cc3)c2=O)CC1 [Compound I-120]
solubility at 2 h [1]: ≥ 100 µM | microsomal CLint at 1 μM [2]: < 10 µL/min/mg

COc1cc(Cn2c(=O)cnc3cnc(-c4c(OC)ncnc4C4CC4)nc32)ccc1-c1nc(C(F)(F)F)cn1C1CC1 [Compound I-125]
solubility at 2 h [1]: ≥ 100 µM | microsomal CLint at 1 μM [2]: 10 to 50 µL/min/mg

COc1ncnc(C2CC2)c1-c1ncc2nc(N3CCN(C)CC3)c(=O)n(Cc3ccc(-c4nc(C(F)(F)F)cn4C4CC4)cc3)c2n1 [Compound I-97]
solubility at 2 h [1]: ≥ 100 µM | microsomal CLint at 1 μM [2]: 10 to 50 µL/min/mg

COc1ncnc(C2CC2)c1-c1ncc2cc(-c3cnn(C)c3)c(=O)n(Cc3ccc(-c4nc(C(F)(F)F)cn4C)cc3)c2n1 [Compound I-64]
solubility at 2 h [1]: < 10 µM | microsomal CLint at 1 μM [2]: < 10 µL/min/mg

COc1ncnc(C2CC2)c1-c1ncc2cc(-c3cnc(C)nc3)c(=O)n(Cc3ccc(-c4nc(C(F)(F)F)cn4C4CC4)cc3)c2n1 [Compound I-140]
solubility at 2 h [1]: ≥ 100 µM | microsomal CLint at 1 μM [2]: < 10 µL/min/mg

COc1ncnc(C2CC2)c1-c1ncc2cc(-c3cn(C)c(C)n3)c(=O)n(Cc3ccc(-c4nc(C(F)(F)F)cn4C4CC4)cc3)c2n1 [Compound I-144]
solubility at 2 h [1]: < 10 µM | microsomal CLint at 1 μM [2]: 10 to 50 µL/min/mg

COc1cc(Cn2c(=O)cnc3cnc(-c4c(OC)ncnc4C4CC4)nc32)ccc1-c1nc(C(F)(F)F)cn1C(C)C [Compound I-119]
Solubility in FaSSIF(μM) ([1]; 2 hours): C (Solubility ≥100 μN) | HLM Clint (μL/min/mg) [2]: A (HLM Clint <10 μL/min/mg)

COc1ncnc(C2CC2)c1-c1ncc2cc(-c3cnn(C4CN(C)C4)c3)c(=O)n(Cc3ccc(-c4nc(C(F)(F)F)cn4C4CC4)cc3)c2n1 [Compound I-137]
solubility at 2 h [1]: ≥ 100 µM | microsomal CLint at 1 μM [2]: 10 to 50 µL/min/mg

COc1cc(Cn2c(=O)ccc3cnc(-c4c(OC)ncnc4C4CC4)nc32)ccc1-n1nc(C(F)(F)F)cc1OC [Compound I-122]
solubility at 2 h [1]: 10 to 100 µM (≈ 5.8 to 58 µg/mL) | microsomal CLint at 1 μM [2]: < 10 µL/min/mg

COc1ncnc(C2CC2)c1-c1ncc2cc(-c3ncccn3)c(=O)n(Cc3ccc(-c4nc(C(F)(F)F)cn4C4CC4)cc3)c2n1 [Compound I-145]
solubility at 2 h [1]: ≥ 100 µM | microsomal CLint at 1 μM [2]: < 10 µL/min/mg

COc1ncnc(C2CC2)c1-c1nc(C)c2ccc(=O)n(Cc3ccc(-c4nc(C(F)(F)F)cn4C4CC4)cc3)c2n1 [Compound I-135]
solubility at 2 h [1]: ≥ 100 µM | microsomal CLint at 1 μM [2]: < 10 µL/min/mg

COc1ncnc(C2CC2)c1-c1ncc2c(C)c(-c3cnn(C)c3)c(=O)n(Cc3ccc(-c4nc(C(F)(F)F)cn4C4CC4)cc3)c2n1 [Compound I-128]
solubility at 2 h [1]: 10 to 100 µM (≈ 6.54 to 65.4 µg/mL) | microsomal CLint at 1 μM [2]: < 10 µL/min/mg

COc1ncnc(OC)c1-c1ncc2ccc(=O)n(Cc3ccc(-c4nc(C(F)(F)F)cn4C4CC4)cc3)c2n1 [Compound I-102]
solubility at 2 h [1]: ≥ 100 µM | microsomal CLint at 1 μM [2]: 10 to 50 µL/min/mg

COc1ncnc(C2CC2)c1-c1ncc2cc(-c3cccnc3)c(=O)n(Cc3ccc(-c4nc(C(F)(F)F)cn4C4CC4)cc3)c2n1 [Compound I-139]
solubility at 2 h [1]: ≥ 100 µM | microsomal CLint at 1 μM [2]: < 10 µL/min/mg

COc1ncnc(C2CC2)c1-c1ncc2cc(-c3cnn(C4CCN(C)CC4)c3)c(=O)n(Cc3ccc(-c4nc(C(F)(F)F)cn4C4CC4)cc3)c2n1 [Compound I-143]
solubility at 2 h [1]: ≥ 100 µM | microsomal CLint at 1 μM [2]: 10 to 50 µL/min/mg

COc1ncnc(C2CC2)c1-c1ncc2cc(-c3cnn(C)c3)c(=O)n(Cc3ccc(-c4nc(C(F)(F)F)cn4C(C)C)cc3)c2n1 [Compound I-138]
solubility at 2 h [1]: ≥ 100 µM | microsomal CLint at 1 μM [2]: < 10 µL/min/mg

COc1cc(Cn2c(=O)ccc3cnc(-c4c(OC)ncnc4C4CC4)nc32)cc(F)c1-c1nc(C(F)(F)F)cn1C1CC1 [Compound I-53]
solubility at 2 h [1]: ≥ 100 µM | microsomal CLint at 1 μM [2]: 10 to 50 µL/min/mg

COc1ncnc(C2CC2)c1-c1ncc2cc(-c3c(C)nn(C)c3C)c(=O)n(Cc3ccc(-c4nc(C(F)(F)F)cn4C4CC4)cc3)c2n1 [Compound I-129]
solubility at 2 h [1]: ≥ 100 µM | microsomal CLint at 1 μM [2]: 10 to 50 µL/min/mg

COc1ncnc(C2CC2)c1-c1ncc2cc(-c3cn[nH]c3)c(=O)n(Cc3ccc(-c4nc(C(F)(F)F)cn4C4CC4)cc3)c2n1 [Compound I-130]
solubility at 2 h [1]: ≥ 100 µM | microsomal CLint at 1 μM [2]: < 10 µL/min/mg
